Test results as given in US11400058B2, “Intravenous formulations of coenzyme Q10 (CoQ10) and methods of use thereof” (Berg LLC, priority 2010, dated 2022).
Marks after values point to notes of the source that are not given here.

Assay: 4-week repeat-dose toxicology study in rats with 2-week recovery (Study 20000328)
Details: for Died or Sacrificed Moribund: animals of 15
[1] = 62.5 mg/kg M, end of dosing, animals of 10
[2] = 62.5 mg/kg M, end of recovery, animals of 5
[3] = 125 mg/kg F, end of dosing, animals of 10
[4] = 125 mg/kg F, end of recovery, animals of 5

COC1=C(OC)C(=O)C(C/C=C(\C)CC/C=C(\C)CC/C=C(\C)CC/C=C(\C)CC/C=C(\C)CC/C=C(\C)CC/C=C(\C)CC/C=C(\C)CC/C=C(\C)CCC=C(C)C)=C(C)C1=O [CoQ10, Coenzyme Q10]
Spleen Histiocytic Infiltration, Mild [1]: 0 | Spleen Histiocytic Infiltration, Moderate [1]: 1 | ALT (62.5 mg/kg M, end of recovery): 20 IU/L | APPT (62.5 mg/kg M, end of recovery): 16.7 s | AST (62.5 mg/kg M, end of recovery): 79 IU/L | Body Weight, percent difference from controls (62.5 mg/kg M, end of recovery): +7.4% | Food Consumption, percent difference from controls (62.5 mg/kg M, end of recovery): +5.8% | GGT (62.5 mg/kg M, end of recovery): 0.00 IU/L | Liver weight (absolute), percent difference from controls (62.5 mg/kg M, end of recovery): +5.0% | Spleen weight (absolute), percent difference from controls (62.5 mg/kg M, end of recovery): −22.2% | Adrenal Gland Vacuolation [2]: 5 | Adrenal Gland Vacuolation, Marked [2]: 0 | Adrenal Gland Vacuolation, Mild [2]: 3 | Adrenal Gland Vacuolation, Minimal [2]: 2 | Adrenal Gland Vacuolation, Moderate [2]: 0 | Gross Pathology: Enlarged Spleen [2]: 0 | Gross Pathology: Pale Iliac Lymph Node [2]: 2 | Gross Pathology: Pale Liver [2]: 2 | Gross Pathology: Pale Pancreatic Lymph Node [2]: 1 | Liver Focal Necrosis [2]: 0 | Liver Focal Necrosis, Mild [2]: 0 | Liver Focal Necrosis, Minimal [2]: 0 | Liver Histiocytic Infiltration [2]: 1 | Liver Histiocytic Infiltration, Mild [2]: 0 | Liver Histiocytic Infiltration, Minimal [2]: 1 | Liver Histiocytic Infiltration, Moderate [2]: 0 | Liver Multifocal Necrosis [2]: 0 | Liver Multifocal Necrosis, Mild [2]: 0 | Liver Multifocal Necrosis, Moderate [2]: 0 | Liver Vacuolation [2]: 5 | Liver Vacuolation, Mild [2]: 1 | Liver Vacuolation, Minimal [2]: 4 | Liver Vacuolation, Moderate [2]: 0 | Lymph Node, Man. Histiocytic Infiltration [2]: 4 | Lymph Node, Man. Histiocytic Infiltration, Mild [2]: 0 | Lymph Node, Man. Histiocytic Infiltration, Minimal [2]: 4 | Lymph Node, Man. Histiocytic Infiltration, Moderate [2]: 0 | Lymph Node, Mes. Histiocytic Infiltration [2]: 5 | Lymph Node, Mes. Histiocytic Infiltration, Mild [2]: 1 | Lymph Node, Mes. Histiocytic Infiltration, Minimal [2]: 4 | Spleen Histiocytic Infiltration [2]: 2 | Spleen Histiocytic Infiltration, Marked [2]: 0 | Spleen Histiocytic Infiltration, Mild [2]: 0 | Spleen Histiocytic Infiltration, Minimal [2]: 2 | Spleen Histiocytic Infiltration, Moderate [2]: 0 | Died or Sacrificed Moribund (125 mg/kg F): 0 | ALT (125 mg/kg F, end of dosing): 20 IU/L | APPT (125 mg/kg F, end of dosing): 14.4* seconds | AST (125 mg/kg F, end of dosing): 76* IU/L | Body Weight, percent difference from controls (125 mg/kg F, end of dosing): −5.5% | Eosinophils (125 mg/kg F, end of dosing): 0.08 10^3/cmm | Erythrocytes (125 mg/kg F, end of dosing): 6.90* 10^6/cmm | Food Consumption, percent difference from controls (125 mg/kg F, end of dosing): −12.5* % | GGT (125 mg/kg F, end of dosing): 0.53 IU/L | Hematocrit (125 mg/kg F, end of dosing): 39.1* % | Hemoglobin (125 mg/kg F, end of dosing): 13.5 g/dL | Leukocytes (125 mg/kg F, end of dosing): 9.49 10^3/cmm | Liver weight (absolute), percent difference from controls (125 mg/kg F, end of dosing): −0.6% | Lymphocytes (125 mg/kg F, end of dosing): 7.35 10^3/cmm | Neutrophils (125 mg/kg F, end of dosing): 1.64 10^3/cmm | Spleen weight (absolute), percent difference from controls (125 mg/kg F, end of dosing): −11.2% | Bone Marrow, Sternum Hyperplasia [3]: 0 | Bone Marrow, Sternum Hyperplasia, Mild [3]: 0 | Bone Marrow, Sternum Hyperplasia, Minimal [3]: 0 | Gross Pathology: Enlarged Pancreatic Lymph Nodes [3]: 1 | Gross Pathology: Pale Adrenal [3]: 0 | Gross Pathology: Pale Liver [3]: 10 | Gross Pathology: Pale Lymph Nodes [3]: 0 | Gross Pathology: Pale Ovaries [3]: 1 | Gross Pathology: Pale Pituitary [3]: 0 | Gross Pathology: Pale SQ Skin [3]: 3 | Liver Focal Necrosis [3]: 0 | Liver Focal Necrosis, Minimal [3]: 0 | Liver Histiocytic Infiltration [3]: 9 | Liver Histiocytic Infiltration, Mild [3]: 7 | Liver Histiocytic Infiltration, Minimal [3]: 1 | Liver Histiocytic Infiltration, Moderate [3]: 1 | Liver Vacuolation [3]: 10 | Liver Vacuolation, Mild [3]: 4 | Liver Vacuolation, Minimal [3]: 6 | Lymph Node, Man. Histiocytic Infiltration [3]: 3 | Lymph Node, Man. Histiocytic Infiltration, Mild [3]: 0 | Lymph Node, Man. Histiocytic Infiltration, Minimal [3]: 2 | Lymph Node, Man. Histiocytic Infiltration, Moderate [3]: 1 | Lymph Node, Mes. Histiocytic Infiltration [3]: 10 | Lymph Node, Mes. Histiocytic Infiltration, Mild [3]: 5 | Lymph Node, Mes. Histiocytic Infiltration, Minimal [3]: 5 | Lymph Node, Mes. Histiocytic Infiltration, Moderate [3]: 0 | Ovary Histiocytic Infiltration [3]: 10 | Ovary Histiocytic Infiltration, Mild [3]: 0 | Ovary Histiocytic Infiltration, Minimal [3]: 10 | Ovary Histiocytic Infiltration, Moderate [3]: 0 | Skin, Dermis Histiocytic Infiltration [3]: 2 | Skin, Dermis Histiocytic Infiltration, Marked [3]: 0 | Skin, Dermis Histiocytic Infiltration, Mild [3]: 1 | Skin, Dermis Histiocytic Infiltration, Moderate [3]: 1 | Skin, SQ Histiocytic Infiltration [3]: 2 | Skin, SQ Histiocytic Infiltration, Mild [3]: 2 | Spleen Histiocytic Infiltration [3]: 9 | Spleen Histiocytic Infiltration, Marked [3]: 1 | Spleen Histiocytic Infiltration, Mild [3]: 4 | Spleen Histiocytic Infiltration, Moderate [3]: 3 | ALT (125 mg/kg F, end of recovery): 21 IU/L | APPT (125 mg/kg F, end of recovery): 15.4 s | AST (125 mg/kg F, end of recovery): 68 IU/L | Body Weight, percent difference from controls (125 mg/kg F, end of recovery): −3.9% | Food Consumption, percent difference from controls (125 mg/kg F, end of recovery): −10.5% | GGT (125 mg/kg F, end of recovery): 0.63* IU/L | Liver weight (absolute), percent difference from controls (125 mg/kg F, end of recovery): +3.5% | Spleen weight (absolute), percent difference from controls (125 mg/kg F, end of recovery): −3.4% | Adrenal Gland Vacuolation [4]: 5 | Adrenal Gland Vacuolation, Marked [4]: 0 | Adrenal Gland Vacuolation, Mild [4]: 4 | Adrenal Gland Vacuolation, Minimal [4]: 0 | Adrenal Gland Vacuolation, Moderate [4]: 1 | Gross Pathology: Enlarged Spleen [4]: 0 | Gross Pathology: Pale Iliac Lymph Node [4]: 3 | Gross Pathology: Pale Liver [4]: 5 | Gross Pathology: Pale Ovaries [4]: 0 | Gross Pathology: Pale Pancreatic Lymph Node [4]: 2 | Liver Focal Necrosis [4]: 0 | Liver Focal Necrosis, Mild [4]: 0 | Liver Focal Necrosis, Minimal [4]: 0 | Liver Histiocytic Infiltration [4]: 5 | Liver Histiocytic Infiltration, Mild [4]: 3 | Liver Histiocytic Infiltration, Minimal [4]: 2 | Liver Histiocytic Infiltration, Moderate [4]: 0 | Liver Multifocal Necrosis [4]: 1 | Liver Multifocal Necrosis, Mild [4]: 1 | Liver Multifocal Necrosis, Moderate [4]: 0 | Liver Vacuolation [4]: 5 | Liver Vacuolation, Mild [4]: 4 | Liver Vacuolation, Minimal [4]: 0 | Liver Vacuolation, Moderate [4]: 1 | Lymph Node, Man. Histiocytic Infiltration [4]: 1 | Lymph Node, Man. Histiocytic Infiltration, Mild [4]: 0 | Lymph Node, Man. Histiocytic Infiltration, Minimal [4]: 2 | Lymph Node, Man. Histiocytic Infiltration, Moderate [4]: 0 | Lymph Node, Mes. Histiocytic Infiltration [4]: 5 | Lymph Node, Mes. Histiocytic Infiltration, Mild [4]: 1 | Lymph Node, Mes. Histiocytic Infiltration, Minimal [4]: 4 | Ovary Histiocytic Infiltration [4]: 5 | Ovary Histiocytic Infiltration, Mild [4]: 2 | Ovary Histiocytic Infiltration, Minimal [4]: 3 | Ovary Histiocytic Infiltration, Moderate [4]: 0 | Spleen Histiocytic Infiltration [4]: 2 | Spleen Histiocytic Infiltration, Marked [4]: 0 | Spleen Histiocytic Infiltration, Mild [4]: 0 | Spleen Histiocytic Infiltration, Minimal [4]: 2 | Spleen Histiocytic Infiltration, Moderate [4]: 0 | Died or Sacrificed Moribund (125 mg/kg M): 0 | ALT (125 mg/kg M, end of dosing): 25 IU/L | APPT (125 mg/kg M, end of dosing): 15.9* seconds | AST (125 mg/kg M, end of dosing): 83 IU/L | Body Weight, percent difference from controls (125 mg/kg M, end of dosing): −8.7* % | Eosinophils (125 mg/kg M, end of dosing): 0.08 10^3/cmm
